Values quoted from earlier work as cited in patent publication US9724304B2, “Nanospheres for therapeutic agent delivery” (Temple University—Of The Commonwealth System of Higher …, priority 2012, dated 2017).
Converted amounts (≈) assume the structure as drawn.

Conditions: at 25° C.

Question: Which aqueous solubility does the source give for `CC1=C(/C=C/C(C)=C/C=C/C(C)=C/C(=O)O)C(C)(C)CCC1` [ATRA, All-trans retinoic acid] here?
Answer: 0.029 mg/mL (≈ 96.5 µM)
